From PMC8273083 (ACS infectious diseases, 2021)

What was measured:
[1] = tested on: RH-strain T. gondii tachyzoites; test: In vivo efficacy, murine model of systemic; set-up: species or system CF-1 mice; conditions: 20 mg/kg orally once daily, in words
[2] = target: TgDHOD-VSSM (Toxoplasma gondii, UniProt Q8MXD1); test: TgDHOD inhibition; format: biochemical
[3] = tested on: T222P strain of T. gondii; test: microbe, parasite or virus in culture; format: cell-based, Toxoplasma gondii
[4] = tested on: RH-strain T. gondii; test: T. gondii growth inhibition, RH strain; format: cell-based; conditions: Toxoplasma gondii, read-out: EC50 vs RH (nM)

`CCc1nc(N)nc(N)c1-c1ccc(Cl)cc1` [pyrimethamine] was tested, and the survival benefit [1] was “no survival benefit”.
Compound `O=C1C(O)=C([C@H]2CC[C@H](c3ccc(Cl)cc3)CC2)C(=O)c2ccccc21` [ATV, atovaquone] has a Ki [2] of 2720 nM.
`COc1cc2[nH]c3cc(Oc4ccc(OC(F)(F)F)cc4)ccc3c(=O)c2cc1F` [Compound 27] was tested, and the “effect of the T222P mutation on potency” value ([3]; T222P versus RH strain, in words) was “confers resistance”, the EC50 ([3]; Toxoplasma gondii, read-out: EC50 vs T222P (nM)) was 5.61 nM and the EC50 [4] was 0.63 nM.
